In patent US8741840B2, “BMP-7 for use in treating neointimal hyperplasia” (Washington University, priority 2008, dated 2014):

Columns and labels:
[1] = Blood tests: serum biochemical parameters in the various groups of animals; type: in vivo, mouse; conditions: serum; LDLR-/-, fat diet, CKD, 28 weeks post natal; BMP-7 10 μg/kg IP weekly or binder 3% in diet
Description: Animals were sacrificed under anesthesia 28 weeks post natal. At the time of sacrifice, blood was taken by intracardiac stab, and the heart and aorta dissected en bloc. The BMP-7 treated group received intraperitoneal injection of BMP-7 10 μg/kg dry weight once weekly in 100 μl vehicle [mannitol (5% w/v), NaAcetate buffer (20 mM, pH 4.0-4.5), sterile water].
Animals were allocated to one of seven CKD high fat fed groups after the second surgery: Other control Groups included LDLR−/− sham operated mice on chow diet, and LDLR−/− mice with CKD on chow diet. C57B16 WT mice fed chow served as the normal benchmark source. […] Group 1 were LDLR−/− mice on the high fat diet sacrificed at 22 weeks. Group 2 were LDLR−/− mice with CKD fed the high fat diet and treated weekly from 22 to 28 weeks with vehicle IP. […] Group 3 was the first treatment group. These were LDLR−/− mice with CKD on high fat diet that received BMP-7 treatment (10 μg/kg IP weekly). Group 4 were LDLR−/− mice with CKD on high fat diet treated with sevelamer CO3 1%. Group 5 were LDLR−/− mice with CKD on high fat diet treated with sevelamer CO3 3%. […] Once the mice were randomized into groups, they were allowed to develop calcification from weeks 14 through weeks 22 post natal. Therapy was initiated at 23 weeks postnatal and continued until week 28 postnatal at which time the mice were examined.
Blood tests: Serum was analyzed on the day of blood draw for blood urea nitrogen [BUN], cholesterol, calcium and phosphate by standard laboratory methods. Before initiation of therapy, blood was obtained through saphenous vein. At the time of sacrifice, blood was obtained through intracardiac stab.

[2] = system: LDLR−/− high fat fed mice; assay: Histology of proximal aorta (alizarin red): calcified atherosclerotic plaques; type: in vivo, mouse; conditions: for size of the atherosclerotic lesions: proximal aorta (FIG. 3); for plaque associated calcium deposition: proximal aorta, alizarin red stain (FIG. 3)
Source text: Tissue Preparation: Resected specimens were flash frozen in liquid nitrogen, then divided as follows: the heart, ascending aorta and aortic arch were separated from the descending aorta, and bisected sagittally through the aortic outflow tract. The descending aorta was bisected coronally, approximately halfway along its length. In order to visualize calcification in the tissue sections, Slices (5 μm thick) were cut and stained with von Kossa and Trap staining.
Additional mice were enrolled to the study for qualitative analysis of aortas to quantitate the effects of the treatments, because aortas of the experimental animals were destroyed by the technique of quantifying the aortic calcium content. Vascular calcification was largely aortic atherosclerotic plaque associated (FIG. 3), and punctate calcifications in the tunica media were observed. Panel A: Large lipid laden plaque (between arrows) in proximal aorta of a sham-operated high fat fed LDLR−/− mouse. Thick arrows identify focal calcifications in the base of the plaque. Panel B: A large calcified plaque (between arrows) in the proximal aorta of a CKD high fat fed LDLR−/− mouse. Panel C: A large lipid laden plaque (between arrows) in the proximal aorta of a BMP-7 treated CKD high fat fed LDLR−/− mouse. The stain is alizarin red. Magnification is 400× in A-C.

hVSMC = assay: RT-PCR of osteoblastic differentiation program genes in hVSMC; type: cell-based, human; conditions: Noggin 100 ng/ml, high phosphorus media (FIG. 6B)
Description: (§1) Cell Culture: Human adult aorta were obtained from seven cadaveric organ donors rejected because of atherosclerosis by Mid-America Transplant Services (St. Louis, Mo.) and enzymatically digested to obtain Human Smooth Muscle Cells (HSMC). Medial tissue was separated from the adventia and intima and digested with collagenase type I (Worthington, Lakewood, N.J.) 2 mg/ml for 1 hr, and washed with Hank's balanced salt solution (HBSS). Further digestion followed with collagenase type II 1 mg/ml (Worthington, Lakewood, N.J.) and elastase 0.25 mg/ml (Worthington, Lakewood, N.J.) for 4 hrs. Cell suspensions were washed twice with HBSS and cultured in T-75 flasks for three weeks in a 95%/5% air/CO2 humidified environment at 37° C. The growth medium used was DMEM containing […] glucose (high glucose), 10% fetal bovine serum (FBS, Atlas, Fort Collins, Colo.), 1 mM sodium pyruvate, 100 units/ml Penicillin and […] Streptomycin (Sigma, St Louis, Mo.). Cell purity was assessed by positive immunostaining for α-smooth muscle actin and calponin and for the absence of von Willebrand factor. In all experimental protocols, cells were seeded at 1×10^5 cells/well in six-well plates. Medium was changed on the first day and every third day thereafter. In all cases, cells used were between passages two and five (Table 3).
RT-PCR: RNA was extracted from cell cultures using RNeasy Mini Kits (Qiagen, Valencia, Calif.). Semi-quantitative RT-PCR was conducted using Roche 1st Strand cDNA Synthesis Kit (Indianapolis, Ind.) and PCR kit from Invitrogen (Grand Island, N.Y.) according to manufacturer's instructions using a two-step method. 1 μg of total RNA was reverse transcribed and random primers were added for 60 min at 42° C., prior to PCR. Forward and Reverse primers (Table 4) were added and the reactions subjected to PCR for 20-35 cycles. The number of cycles necessary to amplify cDNA but remain within the exponential amplification range was determined for each primer set. GAPDH was used as internal standard to assess loading. Genomic contamination was assessed by heat inactivation of the reverse transcriptase prior to RT-PCR. Primers were designed using Vector NTI soft ware (Invitrogen, Grand Island, N.Y.) and optimal conditions for each prime pairs were determined (Table 4). A Perkin-Elmer DNA Thermal Cycler was used to perform the reaction. Products were separated on a 2% agarose E-gel (Invitrogen, Grand Island, N.Y.), and visualized with ethidium bromide. The band intensity was analyzed first by scanning the gel on a Typhoon 9410 gel imager (Amersham Biosciences), quantified by using TotalLab software v2003.03 (Nonlinear Dynamics, Durham, N.C.) and normalized for loading by comparison to GAPGH. Negative controls were performed by inactivating the reverse transcriptase by boiling for 5 min prior to RT-PCR to insure that genomic DNA was not amplified.
Stimulation of osteoblastic differentiation through osterix induction. […] Osterix (E) was only weakly expressed in basal culture conditions. Phosphorus stimulated transcription of osterix (E). […] The data in A-E were normalized to the expression level in basal culture conditions and expressed as fold induction, mean±SEM, n=3. In: Principles of Bone Biology, edited by Bilezikian J P et al., New York, Academic Press, 1996, pp 51-67; Hoffmann H M et al., Proc. Nat. […]

[3] = system: human vascular smooth muscle cells (hVSMC) isolated from atherosclerotic donors; assay: Phosphorus stimulated matrix mineralization (matrix Ca content) in hVSMC cultures; type: cell-based; conditions: Noggin 10-100 ng/ml added to high phosphorus media (FIG. 6A)
Description: as §1
Induction of Calcification: At the time of confluence, cells were switched to mineralization medium consisting of DMEM supplemented with 1 or 2 mM Pi. For cells exposed to BMP-7 treatment, fresh mineralization medium containing either vehicle (mannitol, acetic acid, acetate) or BMP-7 in vehicle was added at 0.1, 1.0, 10, or 100 ng/ml. The medium was changed every two or three days. […] Calcium content was quantified and normalized to cellular protein as described. (Jono 2000; Moe S. M. et al., Kidney Int 67:2295-2304, 2005)^11;52
In vitro matrix mineralization. […]

Molecule: O=C([O-])[O-].O=C([O-])[O-].O=C([O-])[O-].[La+3].[La+3] [Lanthanum, LaCO3]
- Phosphorus [1]: 9.7 ± .4 mg/dL
- size of the atherosclerotic lesions [2]: did not decrease the size of the atherosclerotic lesions
- plaque associated calcium deposition [2]: diminished plaque associated calcium deposition

Molecule: O=C([O-])[O-].[Ca+2] [CaCO3]
- size of the atherosclerotic lesions [2]: did not decrease the size of the atherosclerotic lesions
- plaque associated calcium deposition [2]: diminished plaque associated calcium deposition

B1: Noggin: bone morphogenetic protein specific inhibitor (BMP-2 antagonist), from Pepro Tech. (protein, UniProt Q13253 28-232, looked up)
Noggin: QHYLHIRPAPSDNLPLVDLIEHPDPIFDPKEKDLNETLLRSLLGGHYDPGFMATSPPEDRPGGGGGAAGGAEDLAELDQLLRQRPSGAMPSEIKGLEFSEGLAQGKKQRLSKKLRRKLQMWLWSQTFCPVLYAWNDLGSRFWPRYVKVGSCFSKRSCSVPEGMVCKPSKSVHLTVLRWRCQRRGGQRCGWIPIQYPIISECKCSC
- phosphorus induced osterix expression (hVSMC): blocked phosphorus induced osterix expression
- matrix mineralization stimulated by phosphorus [3]: inhibited matrix mineralization stimulated by phosphorus
